Key:
elevated PVR = assay: GBS-induced pulmonary hypertension, pilot experiments; assay type: in vivo, rats
Experimental: Experimental Protocol is as follows. Fifteen rats were randomly assigned to 1 of 3 groups. Measurements taken at each time point included arterial and mixed venous blood gases, inert gas determinations in samples of arterial blood, mixed venous blood and expired gas, and TNF and TxB2 assays, mean P sa′ mean PAP, P pcw′ and CO from arterial blood, and PVR (PVR=PAP−P pcw/CO), and systemic vascular resistance (SVR=P sa/CO) were calculated at each time point.
After baseline measurements, all rats received continuous infusion of GBS (1.25×10^9 cfu/kg/hr) for 5 hours. Repeat measurements were made at 0.5, 4.0, 4.5, and 5.0 hr of GBS infusion. After 4 hours of GBS infusion, treated animals received amr (amr 10 and amr 20) (Inocor lactate, Sterling Drug Co., New York, N.Y.); control animals (control) received the amr carrier solution containing lactic acid and sodium metabisulfite. Amr 10 rats (n=5; 11.2: t 4.1 days; 3.0: t 0.5 kg) received an amr bolus (8 mg/kg) followed by a continuous infusion of amr diluted with normal saline (10 about g/kg/min) for 1 hour. Amr 20 rats (n=5; 9.2 t 2.2 days; 2.2: t 0.4 kg) received the same amr bolus (8 mg/kg) followed by a continuous infusion of amr diluted with normal saline (20 about g/kg/min) for 1 hour. […]

[1] = test system: non-septic forms of pulmonary hypertension; settings: infusion rates of 10 to 40 about g/kg/min, human studies; cited from earlier work
TNF-α = TNF-α (Homo sapiens, UniProt P01375); settings: Fichtlscherer (2001); cited from earlier work
Sequence of TNF-α (P01375 77-233 limits assumed): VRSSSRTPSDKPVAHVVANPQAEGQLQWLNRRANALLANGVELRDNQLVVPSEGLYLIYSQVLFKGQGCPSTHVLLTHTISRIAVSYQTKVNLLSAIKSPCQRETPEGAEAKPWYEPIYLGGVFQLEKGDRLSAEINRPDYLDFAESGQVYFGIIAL

Compound | effect on elevated PVR (elevated PVR) | reversal of non-septic pulmonary hypertension [1] | systemic endothelial vasodilator capacity (TNF-α)
CC(O)C(=O)O.Nc1cc(-c2ccncc2)c[nH]c1=O [amr] | acute reduction in elevated PVR | successful in reversing | 
ETANERCEPT |  |  | profoundly improves

From US20030170223A1, “Pulmonary vasodilator surfactant compositions and method of use” (Board of Trustees of Michigan State University, priority 2002, published 2003)
